Source: patent US20210207099A1, “METHODS AND COMPOSITIONS FOR GENERATING CELLS OF ENDODERMAL LINEAGE AND BETA CELLS AND USES THEREOF” (priority 2018, published 2021)

What was measured:
Type in all cases: cell-based, human
[1] = tested on: HUES8 cells, hepatic differentiation protocol; test: Liver differentiation with cytoskeletal compounds; details: 1 μM for the first 24 hours of stage 3
Description: (§1) For differentiation to other endodermal lineages, HUES8 stem cells were cultured and passaged normally. Differentiations were initiated 24 hours after seeding 24-well plates at 0.521×10^6 cells/cm^2. Protocols for exocrine pancreas, intestine, and liver were adapted, from literature. Either latrunculin A or nocodazole were added as indicated in each protocol. All three differentiation protocols used the same stage 1 to induce endoderm. Stage 1 (4 days): BE1 media+100 ng/mL Activin A+3 μM CHIR99021 for the first 24 hours, followed with 3 days of BE1 containing 100 ng/mL Activin A only.
Liver Differentiation: Stage 2 (2 days): BE2 media+50 ng/mL KGF. Stage 3 (4 days): BE3 media+10 ng/mL bFGF+30 ng/mL BMP4 (R&D Systems, 314-BP). For the first 24 hours only, 2 μM retinoic acid and either 1 μM latrunculin A or 1 μM nocodazole were added. Stage 4 (5 days): BE3 media+20 ng/mL OSM (R&D Systems, 295-OM)+20 ng/mL HGF (R&D Systems, 294-HG)+100 nM dexamethasone (MilliporeSigma, D4902).

[2] = tested on: HUES8 cells, exocrine differentiation protocol; test: Exocrine pancreas differentiation with cytoskeletal compounds; details: 1 μM for the entirety of stage 4
Description: as §1
Exocrine Pancreas: Stage 2 (2 days): BE2 media+50 ng/mL KGF. Stage 3 (2 days): BE3+50 ng/mL KGF, 200 nM LDN193189, 500 nM TPPB, 2 μM retinoic acid, and 0.25 μM SANT1. Stage 4 (4 days): BE3+50 ng/mL KGF, 200 nM LDN193189, 500 nM TPPB, 0.1 μM retinoic acid, and 0.25 μM SANT1. Either 1 μM latrunculin A was added for the first 24 hours of this stage, or 1 μM nocodazole was added for the entirety of stage 4. Stage 5 (6 days): S5 media+10 ng/mL bFGF. 10 mM nicotinamide (MilliporeSigma, 72340) was added for the last two days.

[3] = tested on: HUES8 cells, intestinal differentiation protocol; test: Intestine differentiation with cytoskeletal compounds; details: 1 μM for the entirety of stage 2
Description: as §1
Intestine Differentiation: Stage 2 (4 days): BE2 media+3 μM CHIR99021+500 ng/mL FGF4 (R&D Systems, 235-F4). Either 1 μM latrunculin A was added for the first 24 hours of this stage, or 1 μM nocodazole was added for the entirety of stage 2. Stage 3 (7 days): BE3 media+500 ng/mL R-spondin1 (R&D Systems, 4645-RS)+100 ng/mL EGF (R&D Systems, 236-EG)+200 nM LDN193189.

[4] = tested on: plated pancreatic progenitors; test: Single-cell RNA sequencing of plated pancreatic progenitors treated throughout stage 4; details: 5 μM nocodazole throughout stage 4
Description: Cells generated with the suspension protocol were single-cell dispersed with TrypLE from clusters at the end of stage 3 and seeded onto collagen 1 coated 24-well plates at 0.625×10^6 cells/cm^2. Either 0.5 μM latrunculin A or 5 μM nocodazole were added throughout the entirety of stage 4. At the end of stage 4, cells were single-cell dispersed, suspended in DMEM, and submitted to the Washington University Genome Technology Access Center. Library preparation was done using the Chromium Single Cell 3′ Library and Gel Bead Kit v2 (10× Genomics, 120237). Briefly, single cells were isolated in emulsions using a microfluidic platform, and each single cell emulsion was barcoded with a unique set of oligonucleotides. The GemCode Platform was used to carry out reverse transcription within each single cell emulsion, which was amplified to construct a library. The libraries were sequenced with paired-end reads of 26×98 primerbp using the Illumina HiSeq2500.
Seurat v2.0 was used to perform single cell RNA analyses. Duplicate cells and cells with high mitochondrial gene expression were filtered out using FilterCells (>9000 total genes and >5% mitochondrial genes for Untreated Control, >6000 genes and >6% mitochondrial genes for latrunculin A, >12000 genes and >4% mitochondrial genes for nocodazole). Each data set was normalized using global-scaling normalization. FindVariableGenes identified and removed outlier genes using scaled z-score dispersion. The datasets were then combined and a canonical correlation analysis (CCA) was performed with RunMultiCCA. AlignSubspace was used to align the CCA subspaces and generated a new dimension reduction for integrated analysis. Unsupervised TSNE plots were generated using RunTSNE, and the resulting clusters were defined and labeled using FindMarkers. VInPlot (Violin plots) and FeaturePlot (tsne plots) were used to visualize differences in gene expressions across each cluster and conditions.

TGFBR1 = test: Lentiviral shRNA knockdown of TGFBR1 in Stage 6 cells; details: real-time PCR
Description: TBP was used as a normalization gene.
pLKO.1 TRC plasmids containing shRNA sequences contained the following sequences: shRNA GFP, […] (SEQ ID NO: 89); shRNA TGFBR1 #1, […] (SEQ ID NO: 90); shRNA TGFBR1 #2, […] (SEQ ID NO: 91). Lentivirus particles were generated and titered using pMD-Lgp/RRE and pCMV-G, and RSV-REV packaging plasmids to contain shRNA. Stage 6 Day 1 cells were single cell dispersed using TrypLE, and 3 million cells were seeded in 4 mL ESFM lentivirus particles at MOI 3-5 on the shaker. Transduced cells were washed with fresh ESFM 16 hr post transduction. RNA extraction and static GSIS was performed on stage 6 day 13.

[5] = tested on: TGFβ signaling (phosphorylated SMAD); test: Western blot of SMAD 2/3 phosphorylation in Stage 6 cells; details: lesser extent than Alk5i
Description: Protein was extracted from cell clusters after washing with PBS by placing in western blot lysis buffer consisting 50 mM HEPES, 140 mM NaCl (MilliporeSigma; 7647-14-5), 1 mM EDTA (MilliporeSigma, 1233508), 1% Triton X-100, 0.1% Na-deoxycholate (MilliporeSigma: D6750), 0.1% SDS (ThermoScientific; 24730020), 1 mM Na3VO4 (MilliporeSigma; 450243), 10 mM NaF (MilliporeSigma; S7920), and 1% Protease Inhibitor Cocktail (MilliporeSigma; p8340), incubating on a shaker for 15 min at 4° C., and centrifuging at 10000 RCF for 10 min at 4° C. Protein amount was quantified with the Pierce BCA Protein Assay (Thermo Scientific; 23228). Protein (30 μg) was loaded onto a 4-20% gradient polyacrylamide gel (Invitrogen; SP04200BOX), resolved by electrophoresis, and transferred onto a 0.45 μm nitrocellulose membrane (BioRad; 1620115). The nitrocellulose membrane was blocked with Blotting Grade Blocker (BioRad; 170-6404) and incubated with rabbit-anti-phospho-SMAD⅔ 1:1000 (Cell Signaling Technologies; 8828) and rabbit-anti-Actin 1:1000 (Santa Cruz Biotechnology; SC1616) antibodies in blocker overnight at 4° C. Membrane was washed and stained with rabbit secondary antibody 1:2500 (Jackson Immuno Research Laboratories; 211-032-171) in blocker for 2 hr at 4° C. and developed using SuperSignal West Femto (Thermo Scientific; 34096). Images were taken on an Odyssey FC (Li-COR). After imaging, the nitrocellulose membrane was stripped using Restore Western Blot Stripping Buffer (Thermo Scientific; 21059), incubated with rabbit-anti-SMAD⅔ (Cell Signaling Technologies; 8685) antibody overnight at 4° C., washed and stained with rabbit secondary antibody 1:2500 in blocker for 2 hr 4° C., developed using SuperSignal West Femto, and imaged using the Odyssey FC.

| Molecule | hepatocyte gene expression [1] | immunostaining for albumin [1] | endocrine induction [2] | trypsin gene expression (PRSS1, PRSS2) and immunostaining [2] | CDX2 gene expression and immunostaining [3] | percentage of exocrine-like progenitors [4] [%] | TGFBR1 transcript compared to control virus targeting GFP (TGFBR1) | SMAD phosphorylation after shRNA transduction [5] |
| --- | --- | --- | --- | --- | --- | --- | --- | --- |
| COC(=O)Nc1nc2ccc(C(=O)c3cccs3)cc2[nH]1 [nocodazole] | increased hepatocyte gene expression | more abundant with nocodazole treatment | inhibited endocrine induction | greatly increased trypsin gene expression | greatly increased CDX2 gene expression and immunostaining | 67.0 |  |  |
| TGFBR1 #1: lentivirus carrying shRNA against TGFBR1, GATCATGATTACTGTCGATAA (SEQ ID NO: 90) |  |  |  |  |  |  | reducing TGFBR1 transcript | reduced SMAD phosphorylation |
| TGFBR1 #2: lentivirus carrying shRNA against TGFBR1, GCAGGATTCTTTAGGCTTTAT (SEQ ID NO: 91) |  |  |  |  |  |  | reducing TGFBR1 transcript | reduced SMAD phosphorylation |
